Reference: patent US9604931B2, “Nuclear receptor binding agents” (GTx, Inc., priority 2007, dated 2017)
Entries after “also recorded” stand apart in the source; their conditions may differ.

Experiments:
[1] = target: ERβ ligand binding domain (Homo sapiens, UniProt Q92731); assay: Competitive [3H]-estradiol binding assay, ER-β (Example 21)
Method: ER binding affinity was determined via one of the following methods:
Briefly, the incubation mixture was filtered through a high affinity protein binding filter, and washed several times to remove any unbound radioactivity. The filter plate was air dried and sealed on the bottom.
Nonspecific binding was subtracted from total binding to yield specific binding.

ER-α [2] = target: T1, ER-α (Rattus norvegicus (Rat), UniProt P06211); assay: Transient transactivation assay in HEK-293 cells, ER-α and ERE-LUC; type: cell-based
Method: Human estrogen receptors (ER-α and ER-β) were cloned from prostate cDNA into a pCR3.1 plasmid vector backbone. PGC-1 was cloned into mammalian two hybrid vector pACT. ER-β H475 was mutated to alanine using site-directed mutagenesis. Sequencing was performed to determine the absence of any non specific mutations. SHP promoter (−572 to +10) (26) was cloned into pGL3 basic LUC reporter vector and human FXR was cloned into pCR3.1. HEK-293 cells were plated at 100,000 cells per well of a 24 well plate in […] (DMEM)+5% charcoal-stripped fetal bovine serum (csFBS). The cells were transfected using Lipofectamine (Invitrogen, Carlsbad, Calif.) with 0.25 μg ERE-LUC, 0.02 μg CMV-LUC (renilla luciferase) and 12.5 ng of rat ER-α or 25 ng rat ER-β. […] Luciferase assays were performed 48 hrs after transfection.
To determine if the selectivity in ER binding also translated into ER-β-selective activity, transient transactivation assays were performed in HEK-293 cells transfected with plasmids encoding ER-α or ER-β and ERE-LUC. The cells were treated with varying concentrations of the ligands and their EC50 values were determined.

PPAR-α = PPAR-α transactivation (PPRE-LUC) in HEK-293 cells co-transfected with ER-β; type: cell-based
Method: FIG. 12 depicts the effect of ER-β ligand on PPAR-γ function through ligand binding domain (LBD). (A). HEK-293 cells were transfected with 0.25 μg PPRE-LUC, 5 ng CMV-renilla LUC and the indicated receptors (PPAR-γ and ER-β for the left panel and PPAR-α and ER-β for the right panel). The cells were treated 24 hrs after transfection with the indicated ligands and harvested 48 hrs after transfection and firefly luciferase activity was measured and normalized to renilla luciferase. (B). H475 in ER-β LBD is important for its function. H475 in ER-β LBD was mutated to alanine (A) using a site directed mutagenesis kit. Transactivation assay was performed as described in panel A in HEK-293 cells with a titration of ER-β ligands in wild type (WT) or ER-β H475A. (C). […] The cells were treated 24 hrs after transfection with the indicated ligands and harvested 48 hrs after transfection and firefly luciferase activity was measured and normalized to renilla luciferase. […] The cells were treated 24 hrs after transfection with the indicated ligands and harvested 48 hrs after transfection and firefly luciferase activity was measured and normalized to renilla luciferase. […] The cells were treated 24 hrs after transfection with the indicated ligands and harvested 48 hrs after transfection and firefly luciferase activity was measured and normalized to renilla luciferase. […]

ARPE-19 cells = assay: Fluorescent detection of intracellular ROS; type: cell-based, Human; settings: 150 μM tBH
Source text: Cells were allowed to adhere overnight. […] Removed and washed cells once with HBSS. […] Each drug concentration was done in triplicates.

SHP promoter = assay: SHP promoter-luciferase assay in HEK-293 cells; type: cell-based; settings: transfected with FXR and ER-β
Method: FIG. 12 depicts the effect of ER-β ligand on PPAR-γ function through ligand binding domain (LBD). (A). HEK-293 cells were transfected with 0.25 μg PPRE-LUC, 5 ng CMV-renilla LUC and the indicated receptors (PPAR-γ and ER-β for the left panel and PPAR-α and ER-β for the right panel). The cells were treated 24 hrs after transfection with the indicated ligands and harvested 48 hrs after transfection and firefly luciferase activity was measured and normalized to renilla luciferase. (B). H475 in ER-β LBD is important for its function. H475 in ER-β LBD was mutated to alanine (A) using a site directed mutagenesis kit. Transactivation assay was performed as described in panel A in HEK-293 cells with a titration of ER-β ligands in wild type (WT) or ER-β H475A. (C). […] HEK-293 cells were transfected with 0.25 μg PPRE-LUC, 5 ng CMV-renilla LUC and 50 ng of the indicated receptors (PPAR-γ or PPAR-γ and wild type ER-β or PPAR-γ and ER-β H475A). The cells were treated 24 hrs after transfection with the indicated ligands and harvested 48 hrs after transfection and firefly luciferase activity was measured and normalized to renilla luciferase. (D). […] HepG2 cells were transfected with 0.25 μg PPRE-LUC, 5 ng CMV-renilla LUC, 0.5 μg PGC-1 or vector backbone and 100 ng of the indicated receptors (PPAR-γ or PPAR-γ and wild type ER-β or PPAR-γ and ER-β H475A for top panels and PPAR-α or PPAR-α and ER-β for bottom panel). The cells were treated 24 hrs after transfection with the indicated ligands and harvested 48 hrs after transfection and firefly luciferase activity was measured and normalized to renilla luciferase. (E). SHP-1 is an ER-β specific target gene. HEK-293 cells were transfected with 0.25 μg SHP-LUC, 5 ng CMV-renilla LUC and 50 ng of the indicated receptors (FXR and ER-α for the left panel and FXR and ER-β for the right panel). The cells were treated 24 hrs after transfection with the indicated ligands and harvested 48 hrs after transfection and firefly luciferase activity was measured and normalized to renilla luciferase. PPAR—peroxisome proliferator and activated receptor; ER—estrogen receptor; H—histidine; A—alanine; RLU—relative luciferase units; Tro—troglitazone; PGC-1—PPAR-γ coactivator; SHP—small heterodimer partner; FXR—farsenoid X receptor.
Human estrogen receptors (ER-α and ER-β) were cloned from prostate cDNA into a pCR3.1 plasmid vector backbone. PGC-1 was cloned into mammalian two hybrid vector pACT. ER-β H475 was mutated to alanine using site-directed mutagenesis. Sequencing was performed to determine the absence of any non specific mutations. SHP promoter (−572 to +10) (26) was cloned into pGL3 basic LUC reporter vector and human FXR was cloned into pCR3.1. […]

ER-β = ER-β (Rattus norvegicus (Rat), UniProt Q62986); assay: ER-β transactivation (ERE-LUC) in COS or 293 cells; type: cell-based; settings: for activation at 0.1 µM: HEK293, 48 h, read-out: Estradiol activity at 100 nM of NRBA, ER-β, 100 nM compound compared to 1 nM estradiol
ER-β, sequence (Q62986 whole entry): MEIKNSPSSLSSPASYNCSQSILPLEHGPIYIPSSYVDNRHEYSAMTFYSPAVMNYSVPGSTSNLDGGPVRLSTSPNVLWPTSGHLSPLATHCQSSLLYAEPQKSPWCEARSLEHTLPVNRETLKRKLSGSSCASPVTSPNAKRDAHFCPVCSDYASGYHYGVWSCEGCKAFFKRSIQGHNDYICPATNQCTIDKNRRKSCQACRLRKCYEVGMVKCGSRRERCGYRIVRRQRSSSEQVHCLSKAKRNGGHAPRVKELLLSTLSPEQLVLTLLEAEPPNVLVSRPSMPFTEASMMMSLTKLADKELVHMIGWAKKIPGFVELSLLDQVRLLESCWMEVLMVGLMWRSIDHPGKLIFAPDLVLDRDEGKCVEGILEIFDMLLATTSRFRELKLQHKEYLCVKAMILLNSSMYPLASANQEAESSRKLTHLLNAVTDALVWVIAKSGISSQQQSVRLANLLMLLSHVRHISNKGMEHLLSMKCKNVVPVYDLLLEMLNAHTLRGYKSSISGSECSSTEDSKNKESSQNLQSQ

[3] = system: high fat diet (HFD) induced obesity model; assay: High fat diet induced obesity, prevention studies; type: in vivo, C57BL6 male mice; settings: for Prevention of the increase in body fat (MRI) / Prevention of body weight increase caused by the high fat diet: Study 2, 30 mg/kg/day s.c.; for Lean mass (MRI): Study 2, high fat diet; for Fat mass (MRI): Study 2, versus high fat diet and vehicle
Method: The mice were treated for 12 weeks.

ER-α [4] = target: T1, ER-α; type: cell-based; settings: for Estradiol activity at 100 nM of NRBA, ER-α: 100 nM compound compared to 1 nM estradiol
Method: COS or 293 cells were plated in DME without phenol red+10% cs FBS at 90,000 cells per well in 24 well plates, and were transfected with 0.25 μg of the vector “ERE-LUC”, where a firefly luciferase gene was driven by two estrogen responsive elements and 0.02 μg of the control CMV-LUC, Renilla where a luciferase gene was driven by a CMV promoter. […] All the receptors were cloned from rat tissue into the PCR3.1 vector backbone. Twenty four hours post transfection, cells were treated with compounds of this invention, estrogen, DHT, and other NRBAs or combinations thereof. Cells were harvested 48 hrs after transfection, and assayed for firefly and Renilla luciferase activity.

[5] = system: Ishikawa endometrial cells; assay: Ishikawa growth assay (ALP); type: cell-based; settings: for Concentration at which proliferation of Ishikawa cells was induced: highest concentration tested
Method: Ishikawa cells were plated at 15,000 cells/well in 24 well plates in DME:F12 (1:1)+5% csFBS w/o phenol red. The cells were maintained in this medium at 37° C. for 3 days. Medium was changed immediately prior to drug treatment for an additional 72 hrs. After 72 hrs, the cells were fixed with formalin and the amount of alkaline phosphatase (ALP) measured by para-nitrophenyl phosphate method.
This effect is one potential concern in the development of ER-α SERMs.

[6] = high fat diet, 30 mg/kg/day s.c., 12 weeks
[7] = high fat diet, 30 mg/kg/day s.c.

ERβ ligand binding domain, sequence (Q92731 whole entry, looked up, the tested form may be a part): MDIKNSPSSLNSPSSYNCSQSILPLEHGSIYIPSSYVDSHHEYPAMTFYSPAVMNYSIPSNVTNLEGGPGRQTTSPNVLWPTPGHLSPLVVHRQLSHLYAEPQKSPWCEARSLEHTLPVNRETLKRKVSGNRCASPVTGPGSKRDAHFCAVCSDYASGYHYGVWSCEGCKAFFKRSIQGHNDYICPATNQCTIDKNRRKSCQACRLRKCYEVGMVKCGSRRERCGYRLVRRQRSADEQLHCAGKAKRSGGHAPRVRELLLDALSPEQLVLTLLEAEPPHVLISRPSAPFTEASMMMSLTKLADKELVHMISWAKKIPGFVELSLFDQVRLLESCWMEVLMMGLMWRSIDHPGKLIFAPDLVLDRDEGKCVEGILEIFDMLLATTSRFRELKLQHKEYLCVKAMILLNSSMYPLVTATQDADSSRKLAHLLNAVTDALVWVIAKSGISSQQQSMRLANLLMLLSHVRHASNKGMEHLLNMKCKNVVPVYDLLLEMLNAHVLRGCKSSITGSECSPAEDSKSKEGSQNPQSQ

Structure (SMILES): O=c1c2c(O)cc(O)cc2c(Br)cn1-c1ccc(O)cc1 [12u, 4-bromo-6,8-dihydroxy-2-(4-hydroxyphenyl)isoquinolin-1(2H)-one]
- inhibition at 0.1 µM ([1]; read-out: Percent Inhibition of [3H]-Estradiol Binding to ER-β): 96.7%
- Function on ER-α in transactivation (ER-α [2]): agonists
- WY14643 induced PPAR-α transactivation (PPAR-α): did not affect
- Prevention of ROS formation / oxidative stress (ARPE-19 cells): did not seem to have any effect
- SHP promoter activity (SHP promoter): neither of the ligands activated SHP
- ER-β agonist activity (ER-β): ER-β agonist activity
- activation at 0.1 µM (ER-β): 85%
- Prevention of the increase in body fat (MRI) [3]: more than 50%
- Prevention of body weight increase caused by the high fat diet ([3]; 12 weeks): more than 50%
- Lean mass (MRI) [3]: increased muscle mass; also recorded: increased the lean mass
- Fat mass (MRI) [3]: reduced fat mass; also recorded: significant reduction in fat mass
- Body weight versus normal diet controls [3, 6]: statistically indistinguishable from the normal diet controls
- Gastrocnemius muscle weight ([3]; high fat diet, 12 weeks): increased gastrocnemius muscle weight
- Serum testosterone levels ([3]; high fat diet, 12 weeks): did not affect the serum testosterone levels; also recorded: not altered
- Testes weights ([3]; high fat diet, 12 weeks): not altered
- White adipose tissue (WAT) weight ([3]; high fat diet, 12 weeks): prevented the increase in the WAT weight; also recorded: decreased WAT weight
- Classification as ER-α agonist (ER-α [4]): ER-α agonists
- Estradiol activity at 100 nM of NRBA, ER-α (ER-α [4]): 62%
- Ishikawa cell proliferation [5]: weakly induced Ishikawa cell proliferation
- Concentration at which proliferation of Ishikawa cells was induced [5]: 1 µM

Structure (SMILES): N#Cc1cn(-c2ccc(O)cc2)c(=O)c2c(O)cc(O)cc12 [14m, 6,8-dihydroxy-2-(4-hydroxyphenyl)-1-oxo-1,2-dihydroisoquinoline-4-carbonitrile]
- Ki ([1]; read-out: ER-β binding constant (Ki)): 7 nM
- Function on ER-α in transactivation (ER-α [2]): agonists
- WY14643 induced PPAR-α transactivation (PPAR-α): did not affect
- SHP promoter activity (SHP promoter): neither of the ligands activated SHP
- activation at 0.1 µM (ER-β): 74.5%
- Prevention of the increase in body fat (MRI) [3]: more than 50%
- Prevention of body weight increase caused by the high fat diet ([3]; 12 weeks): more than 50%
- Lean mass (MRI) [3]: increased muscle mass; also recorded: increased the lean mass
- Fat mass (MRI) [3]: reduced fat mass; also recorded: significant reduction in fat mass
- Accumulation of fat in liver (oil red staining) ([3]; high fat diet): attenuated the accumulation of lipid droplets in the liver; also recorded: completely prevented the accumulation of fat in the liver
- Serum cholesterol increase ([3]; high fat diet): significantly reversed
- Serum leptin increase ([3]; high fat diet): significantly reversed
- Serum macrophage inflammatory protein-1β (MIP-1β) ([3]; high fat diet): undetectable levels
- Bone mineral content (BMC, DEXA) [3, 7]: prevented the loss in BMC
- Feed consumption / total caloric intake [3, 7]: did not affect total caloric intake
- Body fat (DEXA) [3, 6]: suppressing fat mass formation
- Body weight versus normal diet controls [3, 6]: statistically indistinguishable from control mice; also recorded: statistically indistinguishable from the normal diet controls
- Reduction in body weight compared to high fat diet and vehicle [3, 6]: greater than 85%
- Weight gained more than normal diet-fed controls [3, 6]: 5%
- Blood glucose levels in glucose tolerance test ([3]; high fat diet, 150 mg glucose orally): not statistically different from the normal diet controls
- Gastrocnemius muscle weight ([3]; high fat diet, 12 weeks): increased gastrocnemius muscle weight
- Serum follicle stimulating hormone (FSH) levels ([3]; high fat diet, 12 weeks): did not affect serum testosterone and follicle stimulating hormone (FSH) levels
- Serum testosterone levels ([3]; high fat diet, 12 weeks): did not affect the serum testosterone levels; also recorded: not altered
- Testes weights ([3]; high fat diet, 12 weeks): not altered
- White adipose tissue (WAT) weight ([3]; high fat diet, 12 weeks): prevented the increase in the WAT weight; also recorded: significantly reduced; also recorded: decreased WAT weight
- Estradiol activity at 100 nM of NRBA, ER-α (ER-α [4]): 49%
- Ishikawa cell proliferation [5]: weakly induced Ishikawa cell proliferation
- Concentration at which proliferation of Ishikawa cells was induced [5]: 1 µM
